# Measurements taken from US20250129067A1 (Progentos Therapeutics, Inc., priority 2021, published 2025).
# What was measured:
# [1] = system: Oligodendrocyte progenitor cells (OPCs); assay: In vitro OPC differentiation assay, GPR17 expression (immunocytochemistry); settings: 3 μM (10× concentration, final 0.3 μM); 72 hours; fold change over vehicle
# PDGFRα = PDGFRα (Homo sapiens (Human), UniProt P16234); assay: PDGFRα kinase enzyme assay (Promega PDGFRα Kinase Enzyme System, ADP-Glo); format: biochemical; settings: 11-point dose response, 10,000 nM to 0.169 nM; 150 uM ATP; BLQ = below limit of quantitation; read-out: IC50 Values on PDGFRα Kinase Inhibition, IC50
# Chain of PDGFRα (P16234 24-1089): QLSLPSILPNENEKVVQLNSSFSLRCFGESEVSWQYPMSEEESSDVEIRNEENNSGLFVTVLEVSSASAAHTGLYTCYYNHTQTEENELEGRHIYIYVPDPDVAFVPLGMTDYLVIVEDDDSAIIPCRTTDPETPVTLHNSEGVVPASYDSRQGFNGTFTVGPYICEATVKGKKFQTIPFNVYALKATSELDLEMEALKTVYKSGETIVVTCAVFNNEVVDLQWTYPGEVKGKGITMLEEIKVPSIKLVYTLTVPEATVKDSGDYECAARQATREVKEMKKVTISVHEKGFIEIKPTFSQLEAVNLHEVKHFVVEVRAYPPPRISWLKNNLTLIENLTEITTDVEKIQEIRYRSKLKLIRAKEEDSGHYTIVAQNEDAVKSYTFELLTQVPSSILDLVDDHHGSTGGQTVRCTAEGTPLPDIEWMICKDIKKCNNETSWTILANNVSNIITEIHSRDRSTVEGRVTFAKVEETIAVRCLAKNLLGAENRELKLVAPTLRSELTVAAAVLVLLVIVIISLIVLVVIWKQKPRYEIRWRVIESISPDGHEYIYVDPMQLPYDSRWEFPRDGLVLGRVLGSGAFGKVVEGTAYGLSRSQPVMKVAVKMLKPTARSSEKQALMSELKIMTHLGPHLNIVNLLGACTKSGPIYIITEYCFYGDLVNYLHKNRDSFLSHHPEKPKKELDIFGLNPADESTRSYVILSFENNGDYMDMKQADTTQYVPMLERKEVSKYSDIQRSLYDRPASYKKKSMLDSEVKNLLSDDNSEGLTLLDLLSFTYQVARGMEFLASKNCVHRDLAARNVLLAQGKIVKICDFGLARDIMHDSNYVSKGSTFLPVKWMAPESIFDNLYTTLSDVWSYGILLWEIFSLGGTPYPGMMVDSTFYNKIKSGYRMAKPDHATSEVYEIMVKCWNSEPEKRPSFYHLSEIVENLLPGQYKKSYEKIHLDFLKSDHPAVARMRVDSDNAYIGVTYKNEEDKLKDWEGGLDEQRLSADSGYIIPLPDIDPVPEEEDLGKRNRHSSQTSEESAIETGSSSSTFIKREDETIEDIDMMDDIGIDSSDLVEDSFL
# Protocol: The PDGFRα enzyme assays were conducted per the manufacturer's directions (Promega PDGFRα Kinase Enzyme System and ADP Glo Assay Cat #V8011). […] 20 ng of purified PDGFRα protein was added to the test article. […] ADP-Glo was added to halt the kinase reaction and deplete the remaining ATP. Kinase detection reagent, containing luciferase and luciferin, was used to convert the ADP signal into luminescence. Luminescence was measured using a Molecular Devices Spectramax ID5 and compared to a standard curve to determine kinase activity. IC50s were calculated using Prism 9, Graphpad software.
GPR17 Fold Induction (Over Vehicle; 3 μM) [1],IC50 (PDGFRα) [µM],SMILES
0.98,9.01,"Cn1cc(-c2ccc3c(C4CCC(COc5ccccc5)CC4)cnn3c2)cn1 (centres unmarked) [Compound 138, 6-(1-methyl-1H-pyrazol-4-yl)-3-(4-(phenoxymethyl)cyclohexyl)pyrazolo[1,5-a]pyridine]"
1.19,> 10,"COCCn1cncc1-c1ccc2c(N3CCN(C(=O)OC(C)(C)C)CC3)cnn2c1 [Compound 228, tert-butyl 4-(6-(1-(2-methoxyethyl)-1H-imidazol-5-yl)pyrazolo[1,5-a]pyridin-3-yl)piperazine-1-carboxylate]"
4.67,9.41,"CC1CN(C(=O)OC(C)(C)C)CCN1c1cnn2cc(-c3cnn(C)c3)ccc12 (centres unmarked) [Compound 240, tert-butyl 3-methyl-4-(6-(1-methyl-1H-pyrazol-4-yl)pyrazolo[1,5-a]pyridin-3-yl)piperazine-1-carboxylate]"
1.13,3.99,"CC(C)NC(=O)N1CCN(c2cnn3cc(-c4cnn(C)c4)ccc23)CC1 [Compound 47, N-isopropyl 4-[6-(1-methyl-1H-pyrazol-4-yl)pyrazolo[1,5-a]pyridin-3-yl]piperazine-1-carboxamide]"
3.54,> 10,"CN(Cc1ccccc1)C(=O)C1CCC(c2cnn3cc(-c4cnn(C)c4)ccc23)C1 (centres unmarked) [Compound 140, N-benzyl-N-methyl-3-(6-(1-methyl-1H-pyrazol-4-yl)pyrazolo[1,5-a]pyridin-3-yl)cyclopentane-1-carboxamide]"
0.83,> 10,"CN1CCC(OC(=O)N2CCN(c3cnn4cc(-c5cnn(C)c5)ccc34)CC2)CC1 [Compound 19, 1-methylpiperidin-4-yl 4-[6-(1-methyl-1H-pyrazol-4-yl)pyrazolo[1,5-a]pyridin-3-yl]piperazine-1-carboxylate]"
0.67,3.42,"COCCn1cc(-c2ccn3c(N4CCN(C(=O)OC(C)(C)C)CC4)cnc3n2)cn1 [Compound 101, tert-butyl 4-(7-(1-(2-methoxyethyl)-1H-pyrazol-4-yl)imidazo[1,2-a]pyrimidin-3-yl)piperazine-1-carboxylate]"
5.91,7.12,"CN(CCNc1cnn2cc(-c3cnn(C)c3)ccc12)c1ncc(Cc2ccccc2)cn1 [Compound 126, N^1-(5-benzylpyrimidin-2-yl)-N^1-methyl-N^2-(6-(1-methyl-1H-pyrazol-4-yl)pyrazolo[1,5-a]pyridin-3-yl)ethane-1,2-diamine]"
1.43,> 10,"Cn1cc(-c2ccc3c(C(O)CCc4ncc(Cc5ccccc5)cn4)cnn3c2)cn1 (centres unmarked) [Compound 299, 3-(5-benzylpyrimidin-2-yl)-1-(6-(1-methyl-1H-pyrazol-4-yl)pyrazolo[1,5-a]pyridin-3-yl)propan-1-ol]"
1.64,7.55,"Cn1cc(-c2ccc3c(N4CCN(C(=O)O[C@@H]5CCc6cc(Cl)ccc65)CC4)cnn3c2)cn1 [Compound 314, (1R)-5-chloro-2,3-dihydro-1H-inden-1-yl 4-[6-(1-methyl-1H-pyrazol-4-yl)pyrazolo[1,5-a]pyridin-3-yl]piperazine-1-carboxylate]"
2.52,> 10,"Cn1cc(-c2ccc3c(N4CCN(c5cnc(Cc6ccccc6)cn5)CC4)cnn3c2)cn1 [Compound 303, 3-(4-(5-benzylpyrazin-2-yl)piperazin-1-yl)-6-(1-methyl-1H-pyrazol-4-yl)pyrazolo[1,5-a]pyridine]"
9.79,0.825,"Cn1cc(-c2ccc3c(N4CCN(c5ncc(Cc6ccoc6)cn5)CC4)cnn3c2)cn1 [Compound 169, 3-(4-(5-(furan-3-ylmethyl)pyrimidin-2-yl)piperazin-1-yl)-6-(1-methyl-1H-pyrazol-4-yl)pyrazolo[1,5-a]pyridine]"
5.74,0.815,"Cn1cc(-c2ccc3c(N4CCN(c5ncc(CCCc6ccccc6)cn5)CC4)cnn3c2)cn1 [Compound 183, 6-(1-methyl-1H-pyrazol-4-yl)-3-(4-(5-(3-phenylpropyl)pyrimidin-2-yl)piperazin-1-yl)pyrazolo[1,5-a]pyridine]"
1.30,> 10,"Cc1ccc(CN2CCN(c3cnn4cc(-c5cnn(C)c5)ccc34)CC2)o1 [Compound 201, 6-(1-methyl-1H-pyrazol-4-yl)-3-(4-((5-methylfuran-2-yl)methyl)piperazin-1-yl)pyrazolo[1,5-a]pyridine]"
1.00,> 10,"CC(C)(C)OC(=O)N1CCCN(c2cnc3cc(C4CCOC4)ncn23)CC1 (centres unmarked) [Compound 94, tert-butyl 4-(7-(tetrahydrofuran-3-yl)imidazo[1,2-c]pyrimidin-3-yl)-1,4-diazepane-1-carboxylate]"
2.20,6.96,"Cn1cc(-c2ccc3c(N4CCN(Cc5csc(Cl)c5)CC4)cnn3c2)cn1 [Compound 200, 3-(4-((5-chlorothiophen-3-yl)methyl)piperazin-1-yl)-6-(1-methyl-1H-pyrazol-4-yl)pyrazolo[1,5-a]pyridine]"

GPR17 Fold Induction (Over Vehicle; 3 μM) [1],IC50 (PDGFRα) [µM],SMILES
3.34,6.59,"Cn1cc(-c2ccc3c(C4CCN(c5ncc(Cc6ccccc6)cn5)C4)cnn3c2)cn1 (centres unmarked) [Compound 75, 3-[1-(5-benzylpyrimidin-2-yl)pyrrolidin-3-yl]-6-(1-methyl-1H-pyrazol-4-yl)pyrazolo[1,5-a]pyridine]"
0.54,> 10,"CN(CCN(C)c1cnc2nc(-c3cnn(C)c3)ccn12)C(=O)OC(C)(C)C [Compound 108, tert-butyl methyl(2-(methyl(7-(1-methyl-1H-pyrazol-4-yl)imidazo[1,2-a]pyrimidin-3-yl)amino)ethyl)carbamate]"
0.93,> 10,"Cn1cc(-c2cc3ncc(N4CCN(C(=O)NCc5ccc(C(F)(F)F)cc5)CC4)n3cn2)cn1 [Compound 118, 4-(7-(1-methyl-1H-pyrazol-4-yl)imidazo[1,2-c]pyrimidin-3-yl)-N-(4-(trifluoromethyl)benzyl)piperazine-1-carboxamide]"
4.38,7.48,"COc1ccc(-c2ccc3c(N4CCN(C(=O)OC(C)(C)C)CC4)cnn3c2)cc1 [Compound 210, tert-butyl 4-(6-(4-methoxyphenyl)pyrazolo[1,5-a]pyridin-3-yl)piperazine-1-carboxylate]"
6.50,2.51,[2H]c1c([2H])c([2H])c(C([2H])([2H])c2cnc(N3CCN(c4cnn5cc(-c6cnn(C)c6)ccc45)CC3)nc2)c([2H])c1[2H] [Compound 82]
1.25,> 10,"COCCn1cc(-c2cc3ncc(N(C)CCN(C)C(=O)OC(C)(C)C)n3cn2)cn1 [Compound 97, tert-butyl (2-((7-(1-(2-methoxyethyl)-1H-pyrazol-4-yl)imidazo[1,2-c]pyrimidin-3-yl)(methyl)amino)ethyl)(methyl)carbamate]"
1.34,> 10,"Cn1cc(-c2ccc3c(NCCNc4ncc(Cc5ccccc5)cn4)cnn3c2)cn1 [Compound 123, N^1-(5-benzylpyrimidin-2-yl)-N^2-(6-(1-methyl-1H-pyrazol-4-yl)pyrazolo[1,5-a]pyridin-3-yl)ethane-1,2-diamine]"
0.33,> 10,"Cn1cc(-c2cc3ncc(N4CCCN(c5ncc(Cc6ccccc6)cn5)CC4)n3cn2)cn1 [Compound 114, 3-(4-(5-benzylpyrimidin-2-yl)-1,4-diazepan-1-yl)-7-(1-methyl-1H-pyrazol-4-yl)imidazo[1,2-c]pyrimidine]"
0.82,1.57,"Cn1cc(-c2cc3ncc(N4CCCN(C(=O)OC(C)(C)C)CC4)n3cn2)cn1 [Compound 85, tert-butyl 4-(7-(1-methyl-1H-pyrazol-4-yl)imidazo[1,2-c]pyrimidin-3-yl)-1,4-diazepane-1-carboxylate]"
1.57,–,CN(CCCN(C)c1cnn2cc(-c3cnn(C)c3)ccc12)c1ncc(Cc2ccccc2)cn1 [Compound 130]
–,> 10,"Cn1cc(-c2ccn3ncc(N4CCN(c5ncc(Cc6ccccc6)cn5)CC4)c3c2)cn1 [Compound 4, 3-[4-(5-benzylpyrimidin-2-yl)piperazin-1-yl]-5-(1-methyl-1H-pyrazol-4-yl)pyrazolo[1,5a]pyridine]"
1.43,–,Cn1cc(-c2ccn3c(N4CCN(C(=O)OC(C)(C)C)CC4)cnc3n2)cn1 [Compound 87]
1.15,–,"Cn1cc(-c2ccc3c(CCc4ncc(Cc5ccccc5)cn4)cnn3c2)cn1 [Compound 305, 3-(2-(5-benzylpyrimidin-2-yl)ethyl)-6-(1-methyl-1H-pyrazol-4-yl)pyrazolo[1,5-a]pyridine]"
1.94,–,"Cn1cc(-c2ccc3c(N4CCN(Cc5ccc(Cl)cc5)CC4)cnn3c2)cn1 [Compound 202, 3-(4-(4-chlorobenzyl)piperazin-1-yl)-6-(1-methyl-1H-pyrazol-4-yl)pyrazolo[1,5-a]pyridine]"
9.23,–,"Cn1cc(-c2ccc3c(N4CCN(C(=O)OCc5ccc(Cl)cc5)CC4)cnn3c2)cn1 [Compound 198, 4-chlorobenzyl 4-(6-(1-methyl-1H-pyrazol-4-yl)pyrazolo[1,5-a]pyridin-3-yl)piperazine-1-carboxylate]"
